Laboratory results as given in patent US20080108665A1, “Use of N-substituted sulfoximines for control of invertebrate pests” (priority 2006, published 2008).

Assays:
[1] = tested on: Cotton Aphid (Aphis gossypii); experiment: Cotton aphid seed coating assay on squash; format: in vivo; settings: 3 mg/seed, 10% SC formulation, counted 3 days after infestation
Description: Selected compounds of the invention were tested in assays designed to evaluate its systemic activity for control of cotton aphid through seed-coating prior to planting. The crop used in these assays was a hybrid squash (var. Pic-N-Pic). Test compound was formulated in a 10% SC formulation. Ten squash seeds were used for each treatment. Seeds were placed on waxed paper and a pipette was used to apply the original or diluted formulations to each seed. The air-dried, treated seeds were individually planted into 3 inch pots containing metro mix. The pots were placed on a California cart and moved into the greenhouse for sub watering only. At the specified number of days after planting, the plants were infested with approximately 40 wingless aphids. The infested plants were kept in an environmental holding room (23° C., 40% RH, 16 hr light: 8 hr dark) for three days before the number of live aphids was counted under a microscope. Calculations for % Control were based on a corrected basis compared to the populations on the reference plants germinated from seeds treated with the formulation blank.
Corrected % Control=100*(X−Y)/X • where X=No. of live aphids on reference plants • Y=No. of live aphids on treated plants Assay 1. Compounds (1) and (2) were tested at 3 mg/seed. The original 10% SC formulation was used. One half (15 ul) of the sample was spread onto one side of a seed. Once dried (approximately 1 hr), the seed was flipped over and the 2nd half of sample was spread over the other side. Fourteen and 25 days after planting, aphid infestations were conducted on the 1st and 2nd true leaves, respectively.
Assay 2. Compound (2) was tested at 0.1 and 1 mg/seed. For the 1 mg/seed treatment, the original 10% formulation was used. For the 0.1 mg/seed treatment, the 10% formulation were diluted 10× with DI water before application. One half (5 ul) of the sample was spread onto one side of a seed. Once dried (approximately 1 hr), the seed was flipped over and the 2nd half of sample was spread over the other side. Thirteen days after planting, the 1st leaf was infested.

[2] = tested on: sweet potato whitefly, Bemisia tabaci; settings: more recently-collected strains of whitefly, late 1990s; cited from earlier work
[3] = tested on: Green Peach Aphid (Myzus persicae); experiment: Green peach aphid root uptake assay on pepper; format: in vivo; settings: 3 days after infestation
Description: These assays were designed to evaluate the possibility of using the compounds identified in the foregoing examples for applications such as nursing trays, transplanting water and/or irrigation. Systemic activity against green peach aphid was evaluated in a root uptake assay. Bell peppers (Capsicum annum var. California Wonder) were used as test plants seeded and grown in rock wool plugs. Plants were grown to expanding 1st true leaf stage. The rock wool plugs containing individual plants were placed in 1-ounce cups and surrounded with white clean sand. Five plants were used for each treatment. A volume of 5 mL of the test solutions was applied to each cup (each plant). After insecticide application, the seedlings were infested with green peach aphids and held in a growth chamber (25° C., 50% RH, 16 hr light: 8 hr dark). Number of live aphids on each plant was counted at 3 days after infestation. Calculations for % Control were based on a corrected basis compared to the populations on the reference plants.
Corrected % Control=100*(X−Y)/X • where X=No. of live aphids on reference plants • Y=No. of live aphids on treated plants Assay 1: Compound (3) was tested at a dose range of 5-500 μg/plant. A stock solution of 1000 ppm (1 mg/mL) was made by dissolving technical test compound in acetone:ethanol (90:10). The highest test concentration (100 ppm, 500 μg/5 ml) was prepared by diluting 2.5 mL stock solution with 22.5 mL DI water. The lower test concentrations (25 mL) were similarly prepared by diluting aliquots of the stock solution with DI water. Reference plants received DI water only.
Assay 2: Compound (2) was tested at a dose range of 0.08-50 μg/plant. A stock solution of 1000 ppm was made by dissolving 2 mg of technical test compound in 2 mL acetone. The highest test concentration (10 ppm, 50 μg/5 ml) was prepared by diluting 0.32 mL stock solution with 1.6 mL acetone and 30.08 mL DI water, containing 6% acetone. Lower test concentrations were prepared by sequentially diluting 6.5 mL higher concentration (start from the 10 ppm test solution) with 26.0 ml acetone: DI water (6:94). The solvent/diluent system (6% acetone) was used as reference.

With `CS(=O)(Cc1ccc(Cl)nc1)=NC#N` (stereo not drawn) [Compound 1, [(6-Chloropyridin-3-yl)methyl](methyl)oxido-λ^4-sulfanylidenecyanamide] the “% Control, seed coating systemic 1st leaf, 14 days after planting” value [1] was 100% and the “% Control, seed coating systemic 2nd leaf, 25 days after planting” value [1] was 99.6%.
In the case of `O=[N+]([O-])NC1=NCCN1Cc1ccc(Cl)nc1` [imidacloprid, Imidacloprid], the resistance [2] is given as “more than 100 fold”.
With `N#CN=S1(=O)CCCC1Cc1ccc(Cl)nc1` (stereo not drawn) [Compound 3, 2-[(6-chloropyridin-3-yl)methyl]-1-oxidotetrahydro-1H-1-λ^4-thien-1-ylidenecyanamide] the “% Control, root uptake systemic” value ([3]; 5 μg/plant) was 10%, the “% Control, root uptake systemic” value ([3]; 50 μg/plant) was 88% and the “% Control, root uptake systemic” value ([3]; 500 μg/plant) was 100%.
